From PMC8117302 (Breast Cancer Research : BCR, 2021)
“And” between values parts separate entries of the source, which are not always exact repeats. Identical values can stand only once.

How the values were obtained:
MCF7 WT ERα tumors = experiment: MIND xenograft dose-response study, MCF7 WT ERα; format: in vivo, NSG mice; conditions: vehicle 4%, p = NS
MCF7 Y537S ERα tumors [1] = experiment: MIND xenograft combination study, MCF7 Y537S ERα, bone histology; format: in vivo, NSG mice; conditions: for tumor metastases to the bone (H&E and IHC staining of bone marrow): Y537S model, 5 mg/kg LAS, in contrast to vehicle control, 5 mg/kg
MCF7 D538G ERα tumors = experiment: MIND xenograft dose-response study, MCF7 D538G ERα; format: in vivo, NSG mice; conditions: for liver metastases (H&E): D538G mice
MCF7 Y537S ERα tumors [2] = experiment: MIND xenograft dose-response study, MCF7 Y537S ERα; format: in vivo, NSG mice; conditions: 5 and 10 mg/kg s.c. 5 days/week, at sacrifice 70 days after treatment initiation, vs vehicle
Procedure: Mouse studies were performed in compliance with an approved Institutional Animal Care and Use Committee protocol at the University of Chicago. To better mimic the progression of ductal lesions to invasive disease, a mammary intraductal (MIND) mouse model was used. NSG (NOD.Cg-Prkdc^scid Il2rg^tm1Wjl/SzJ) mice (Jackson Laboratories) were anesthetized by intraperitoneal injections with a ketamine/xylazine (100/5 mg/kg) mixture in PBS prior to cancer cell injections. Single-cell suspensions of 250,000 WT or mutant MCF7 cells were injected in the mammary ducts of inguinal glands as previously described. Tumor cell growth in situ was followed once weekly or biweekly after injection via luminescence imaging with a Xenogen IVIS 200 instrument in the Integrated Small Animal Imaging Research Resource at the University of Chicago. […] Effects were evaluated in the models expressing WT, Y537S, and D538G ERα for monotherapies, and in the model expressing Y537S ERα for combination therapies.
Treatment was initiated 2 to 3 weeks (dose-response study) or at day 20 (combination study) after cancer cell injections. […] Metastases were evaluated with ex vivo imaging of excised long bones, brains, lungs, and livers and quantified by luciferase activity for the combination study.
Tissues were harvested and fixed in formalin. […] Lung and bone metastases were analyzed using the NSI-Elements software from Nikon. […]

breast cancer = conditions: PEARL trial, 5 years of LAS; cited from earlier work
[3] = fulvestrant 5 mg/mouse, 10 legs examined
[4] = palbociclib 35 mg/kg, 12 legs examined
[5] = palbociclib 70 mg/kg, 12 legs examined
[6] = lasofoxifene 5 mg/kg, 10 legs examined
[7] = lasofoxifene 10 mg/kg, 10 legs examined

Question: What does the source list for `C[C@]12CC[C@@H]3c4ccc(O)cc4C[C@@H](CCCCCCCCC[S+]([O-])CCCC(F)(F)C(F)(F)F)[C@H]3[C@@H]1CC[C@@H]2O` (stereo partly shown) [Fulvestrant]?
Answer: average percent area of lung metastasis (MCF7 WT ERα tumors; 5 mg/mouse s.c. once per week): 1%; Number of legs with metastases (MCF7 Y537S ERα tumors [1]; [3]): 2; Number of legs with necrosis (MCF7 Y537S ERα tumors [1]; [3]): 1; % necrosis (MCF7 Y537S ERα tumors [1]; fulvestrant 5 mg/mouse, leg with necrosis): 18%; Metastases, % of bone marrow, for each leg with metastasis (MCF7 Y537S ERα tumors [1]; fulvestrant 5 mg/mouse, listed as FUL): 1% and 10%; liver metastases (H&E) (MCF7 D538G ERα tumors; FUL 5 mg/mouse s.c. once per week): no liver metastases were observed

Question: Which “Number of legs with metastases” value (MCF7 Y537S ERα tumors [1]; [4]) does the source give for `CC(=O)c1c(C)c2cnc(Nc3ccc(N4CCNCC4)cn3)nc2n(C2CCCC2)c1=O` [Palbociclib] here?
Answer: Its value is “none”.

Question: What about the “Number of legs with necrosis” value (MCF7 Y537S ERα tumors [1]; [4]) of the same compound?
Answer: The value was “none”.

Question: What about the “Number of legs with metastases” value (MCF7 Y537S ERα tumors [1]; [5]) of the same compound?
Answer: The value was “none”.

Question: And the “Number of legs with necrosis” value (MCF7 Y537S ERα tumors [1]; [5])?
Answer: The value was “none”.

Question: With `Oc1ccc2c(c1)CC[C@H](c1ccccc1)[C@@H]2c1ccc(OCCN2CCCC2)cc1` [Lasofoxifene] as the compound, how does the “average percent area of lung metastasis” value (MCF7 WT ERα tumors; all tested doses (1, 5, 10 mg/kg s.c. 5 days/week)) read?
Answer: The value was 0.9–1.5%.

Question: What about the “Reduction in tumor weight” value (MCF7 Y537S ERα tumors [2]) of the same compound?
Answer: Its value is “approximately 60%”.

Question: And the “tumor metastases to the bone (H&E and IHC staining of bone marrow)” value (MCF7 Y537S ERα tumors [1])?
Answer: Its value is “No metastases were observed”.

Question: What about the “tumor metastases to the bone (H&E and IHC staining of bone marrow)” value (MCF7 Y537S ERα tumors [1]; listed as LAS) of the same compound?
Answer: Its value is “completely blocked”.

Question: What about the “Number of legs with metastases” value (MCF7 Y537S ERα tumors [1]; [6]) of the same compound?
Answer: The value was “none”.

Question: What about the “Number of legs with necrosis” value (MCF7 Y537S ERα tumors [1]; [6]) of the same compound?
Answer: Its value is “none”.

Question: What about the “Number of legs with metastases” value (MCF7 Y537S ERα tumors [1]; [7]) of the same compound?
Answer: Its value is “none”.

Question: And the “Number of legs with necrosis” value (MCF7 Y537S ERα tumors [1]; [7])?
Answer: Its value is “none”.

Question: And the “liver metastases (H&E)” value (MCF7 D538G ERα tumors; LAS 1, 5, 10 mg/kg s.c. 5 days/week)?
Answer: Its value is “no liver metastases were observed”.

Question: And the “Reduction in tumor weight” value (MCF7 D538G ERα tumors; D538G, 5 and 10 mg/kg s.c. 5 days/week, at sacrifice 70 days after treatment initiation, vs vehicle)?
Answer: Its value is ~50%.

Question: And the “reduced risk for invasive ER+ breast cancer” value (breast cancer)?
Answer: Its value is 83%.

Question: What about the “reduced risk for total breast cancers” value (breast cancer) of the same compound?
Answer: Its value is 79%.
